Test system: 299254-011-R-J1-PDC complex spheroids viability
Test: Anticancer human tumor 299254-011-R-J1-PDC patient-derived melanoma cell line growth inhibition [GQUAD]
Conditions: for IC50: curve of first compound; for viability, T/C: stronger effect = lower value
How it was run: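 Viability of tumor cells grown as complex spheroids with endothelial and stromal cells, exposed to drug combinations. Top concentration at or near clinical Cmax (else 10 microM), diluted in half-log increments.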

[1] = second compound 0.0316 µM, first compound 0.0316 µM
[2] = second compound 0.0316 µM, first compound 0.1 µM
[3] = second compound 0.0316 µM, first compound 0.316 µM
[4] = second compound 0.0316 µM, first compound 1 µM
[5] = second compound 0.0316 µM, first compound 3.16 µM
[6] = second compound 0.0316 µM, first compound 10 µM
[7] = second compound 0.1 µM, first compound 0.0316 µM
[8] = second compound 0.1 µM, first compound 0.1 µM
[9] = second compound 0.1 µM, first compound 0.316 µM
[10] = second compound 0.1 µM, first compound 1 µM
[11] = second compound 0.1 µM, first compound 3.16 µM
[12] = second compound 0.1 µM, first compound 10 µM
[13] = second compound 0.316 µM, first compound 0.0316 µM
[14] = second compound 0.316 µM, first compound 0.1 µM
[15] = second compound 0.316 µM, first compound 0.316 µM
[16] = second compound 0.316 µM, first compound 1 µM
[17] = second compound 0.316 µM, first compound 3.16 µM
[18] = second compound 0.316 µM, first compound 10 µM
[19] = second compound 1 µM, first compound 0.0316 µM
[20] = second compound 1 µM, first compound 0.1 µM
[21] = second compound 1 µM, first compound 0.316 µM
[22] = second compound 1 µM, first compound 1 µM
[23] = second compound 1 µM, first compound 3.16 µM
[24] = second compound 1 µM, first compound 10 µM
[25] = second compound 3.16 µM, first compound 0.0316 µM
[26] = second compound 3.16 µM, first compound 0.1 µM
[27] = second compound 3.16 µM, first compound 0.316 µM
[28] = second compound 3.16 µM, first compound 1 µM
[29] = second compound 3.16 µM, first compound 3.16 µM
[30] = second compound 3.16 µM, first compound 10 µM
[31] = second compound 10 µM, first compound 0.0316 µM
[32] = second compound 10 µM, first compound 0.1 µM
[33] = second compound 10 µM, first compound 0.316 µM
[34] = second compound 10 µM, first compound 1 µM
[35] = second compound 10 µM, first compound 3.16 µM
[36] = second compound 10 µM, first compound 10 µM
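Further: spheroids exposed to the agents for seven days before readout.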
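Wherever viability, T/C is given: percent viability relative to DMSO vehicle control wells = 100%.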

With `COc1ccc([C@@H](O)c2cc(-c3ncnc4cc(N5CCOCC5)ccc34)c(F)cc2Cl)nn1` + CN(C)c1ccc(Nc2c3ccc(NC(=O)CCN4CCCC4)cc3nc3cc(NC(=O)CCN4CCCC4)ccc23)cc1 the IC50 (second compound 0.0316 µM) was > 10 µM, the IC50 (second compound 0.1 µM) was > 10 µM and the IC50 (second compound 0.316 µM) was 9.57 µM. The IC50 (second compound 1 µM) was > 10 µM, the IC50 (second compound 3.16 µM) was > 10 µM and the IC50 (second compound 10 µM) was > 10 µM. It also gave a viability, T/C [1] of 105%, a viability, T/C [2] of 116% and a viability, T/C [3] of 104%. For the same molecule, the viability, T/C [4] was 96.6%, the viability, T/C [5] was 85.9% and the viability, T/C [6] was 72.5%. For the same molecule, the viability, T/C [7] was 105%, the viability, T/C [8] was 124% and the viability, T/C [9] was 98.3%. The viability, T/C [10] was 108%, the viability, T/C [11] was 106% and the viability, T/C [12] was 61.6%. It also gave a viability, T/C [13] of 96.8%, a viability, T/C [14] of 94.5% and a viability, T/C [15] of 90%. It also gave a viability, T/C [16] of 106%, a viability, T/C [17] of 96.4% and a viability, T/C [18] of 48.1%. For the same molecule, the viability, T/C [19] was 124%, the viability, T/C [20] was 111% and the viability, T/C [21] was 106%. For the same molecule, the viability, T/C [22] was 106%, the viability, T/C [23] was 92.6% and the viability, T/C [24] was 59.1%. It also gave a viability, T/C [25] of 96.5%, a viability, T/C [26] of 126% and a viability, T/C [27] of 113%. The viability, T/C [28] was 93.1%, the viability, T/C [29] was 117% and the viability, T/C [30] was 68.5%. For the same molecule, the viability, T/C [31] was 123%, the viability, T/C [32] was 112% and the viability, T/C [33] was 97.5%. For the same molecule, the viability, T/C [34] was 106%, the viability, T/C [35] was 88.9% and the viability, T/C [36] was 50.8%.

`O=C(c1cc(Cc2n[nH]c(=O)c3ccccc23)ccc1F)N1CCN(C(=O)C2CC2)CC1` + Cc1cnc(CNC(=O)c2c(=O)c3ccc(N4CCCN(C)CC4)nc3n3c2sc2ccccc23)cn1 was tested, and the IC50 (second compound 0.0316 µM) was > 10 µM, the IC50 (second compound 0.1 µM) was > 10 µM and the IC50 (second compound 0.316 µM) was > 10 µM. The IC50 (second compound 1 µM) was > 10 µM, the IC50 (second compound 3.16 µM) was > 10 µM and the IC50 (second compound 10 µM) was < 0.0316 µM. It also gave a viability, T/C [1] of 99.3%, a viability, T/C [2] of 92.8% and a viability, T/C [3] of 94.1%. It also gave a viability, T/C [4] of 83.4%, a viability, T/C [5] of 87.2% and a viability, T/C [6] of 81.5%. For the same molecule, the viability, T/C [7] was 102%, the viability, T/C [8] was 99.8% and the viability, T/C [9] was 89.7%. The viability, T/C [10] was 98.4%, the viability, T/C [11] was 117% and the viability, T/C [12] was 81.6%. The viability, T/C [13] was 81.6%, the viability, T/C [14] was 97.2% and the viability, T/C [15] was 91.3%. For the same molecule, the viability, T/C [16] was 102%, the viability, T/C [17] was 103% and the viability, T/C [18] was 73.9%. For the same molecule, the viability, T/C [19] was 78%, the viability, T/C [20] was 79.5% and the viability, T/C [21] was 82.7%. It also gave a viability, T/C [22] of 73.5%, a viability, T/C [23] of 75.6% and a viability, T/C [24] of 66%. The viability, T/C [25] was 67.1%, the viability, T/C [26] was 91.5% and the viability, T/C [27] was 93.7%. The viability, T/C [28] was 78.8%, the viability, T/C [29] was 69.5% and the viability, T/C [30] was 67.9%. For the same molecule, the viability, T/C [31] was 0.42%, the viability, T/C [32] was 20.2% and the viability, T/C [33] was 52.3%. It also gave a viability, T/C [34] of 41.7%, a viability, T/C [35] of 0.43% and a viability, T/C [36] of 0.33%.

For `C=CCn1c(=O)c2cnc(Nc3ccc(N4CCN(C)CC4)cc3)nc2n1-c1cccc(C(C)(C)O)n1` + CN(C)c1ccc(Nc2c3ccc(NC(=O)CCN4CCCC4)cc3nc3cc(NC(=O)CCN4CCCC4)ccc23)cc1, the IC50 (second compound 0.0316 µM) was 0.999 µM, the IC50 (second compound 0.1 µM) was 1.79 µM and the IC50 (second compound 0.316 µM) was 1.75 µM. The IC50 (second compound 1 µM) was 2.28 µM, the IC50 (second compound 3.16 µM) was 1.97 µM and the IC50 (second compound 10 µM) was 1.68 µM. For the same molecule, the viability, T/C [1] was 101%, the viability, T/C [2] was 106% and the viability, T/C [3] was 77.8%. For the same molecule, the viability, T/C [4] was 49.7%, the viability, T/C [5] was 46.8% and the viability, T/C [6] was 31.5%. It also gave a viability, T/C [7] of 88.2%, a viability, T/C [8] of 94.7% and a viability, T/C [9] of 76.6%. It also gave a viability, T/C [10] of 69.6%, a viability, T/C [11] of 30.8% and a viability, T/C [12] of 27.3%. The viability, T/C [13] was 92.7%, the viability, T/C [14] was 81.2% and the viability, T/C [15] was 95.9%. The viability, T/C [16] was 65.9%, the viability, T/C [17] was 34.9% and the viability, T/C [18] was 31.5%. For the same molecule, the viability, T/C [19] was 120%, the viability, T/C [20] was 99.5% and the viability, T/C [21] was 91.9%. The viability, T/C [22] was 71.1%, the viability, T/C [23] was 37.4% and the viability, T/C [24] was 29.6%. The viability, T/C [25] was 92.4%, the viability, T/C [26] was 94.5% and the viability, T/C [27] was 119%. For the same molecule, the viability, T/C [28] was 75.2%, the viability, T/C [29] was 36.2% and the viability, T/C [30] was 28.9%. For the same molecule, the viability, T/C [31] was 97.5%, the viability, T/C [32] was 115% and the viability, T/C [33] was 92.7%. The viability, T/C [34] was 67.8%, the viability, T/C [35] was 27.2% and the viability, T/C [36] was 28.3%.

Molecule `COc1cccc2c1C(=O)c1c(O)c3c(c(O)c1C2=O)CC(O)(C(=O)CO)CC3OC1CC(N)C(O)C(C)O1` (stereo not drawn) + Cc1[nH]c2ccc(F)cc2c1-c1nc2c3cccnc3c3ncccc3c2[nH]1 has an IC50 (second compound 0.0316 µM) of 4.67 µM, an IC50 (second compound 0.1 µM) of 4.19 µM and an IC50 (second compound 0.316 µM) of 5.32 µM. It also gave an IC50 (second compound 1 µM) of 4.92 µM, an IC50 (second compound 3.16 µM) of 2.99 µM and an IC50 (second compound 10 µM) of 2.56 µM. The viability, T/C [1] was 100%, the viability, T/C [2] was 91.5% and the viability, T/C [3] was 82.2%. The viability, T/C [4] was 90.5%, the viability, T/C [5] was 62.4% and the viability, T/C [6] was 25.7%. For the same molecule, the viability, T/C [7] was 91.4%, the viability, T/C [8] was 91.7% and the viability, T/C [9] was 88%. The viability, T/C [10] was 66.4%, the viability, T/C [11] was 64.7% and the viability, T/C [12] was 23.8%. It also gave a viability, T/C [13] of 94.2%, a viability, T/C [14] of 92.1% and a viability, T/C [15] of 93.3%. It also gave a viability, T/C [16] of 94.7%, a viability, T/C [17] of 74.4% and a viability, T/C [18] of 20.4%. The viability, T/C [19] was 88.9%, the viability, T/C [20] was 86.9% and the viability, T/C [21] was 94.2%. For the same molecule, the viability, T/C [22] was 95.3%, the viability, T/C [23] was 69.1% and the viability, T/C [24] was 19.3%. The viability, T/C [25] was 89.9%, the viability, T/C [26] was 91.7% and the viability, T/C [27] was 90.1%. It also gave a viability, T/C [28] of 70.3%, a viability, T/C [29] of 50.2% and a viability, T/C [30] of 13.4%. The viability, T/C [31] was 90.2%, the viability, T/C [32] was 91.3% and the viability, T/C [33] was 82.6%. For the same molecule, the viability, T/C [34] was 83.3%, the viability, T/C [35] was 42.6% and the viability, T/C [36] was 11.9%.

From PubChem BioAssay AID2060513 (Molecular Pharmacology Branch, DTP, NCI, 2025)
